The values that follow are results of earlier work, collected in paper PMC11477000, “Enantioselective Binding of Proton Pump Inhibitors to Alpha1-Acid Glycoprotein and Human Serum Albumin—A Chromatographic, Spectroscopic, and In Silico Study” (International Journal of Molecular Sciences, 2024).

Data set [1] has as its target T1, HSA (Homo sapiens, UniProt P02768).
T1 construct: purchased Sigma-Aldrich
Conditions: ref [41]; cited from earlier work.

In data set [2] the target is T1, HSA. As to conditions: ref [42]; cited from earlier work.

Where two headings read alike, the source gives them in different places.

T1 sequence (P02768 25-609): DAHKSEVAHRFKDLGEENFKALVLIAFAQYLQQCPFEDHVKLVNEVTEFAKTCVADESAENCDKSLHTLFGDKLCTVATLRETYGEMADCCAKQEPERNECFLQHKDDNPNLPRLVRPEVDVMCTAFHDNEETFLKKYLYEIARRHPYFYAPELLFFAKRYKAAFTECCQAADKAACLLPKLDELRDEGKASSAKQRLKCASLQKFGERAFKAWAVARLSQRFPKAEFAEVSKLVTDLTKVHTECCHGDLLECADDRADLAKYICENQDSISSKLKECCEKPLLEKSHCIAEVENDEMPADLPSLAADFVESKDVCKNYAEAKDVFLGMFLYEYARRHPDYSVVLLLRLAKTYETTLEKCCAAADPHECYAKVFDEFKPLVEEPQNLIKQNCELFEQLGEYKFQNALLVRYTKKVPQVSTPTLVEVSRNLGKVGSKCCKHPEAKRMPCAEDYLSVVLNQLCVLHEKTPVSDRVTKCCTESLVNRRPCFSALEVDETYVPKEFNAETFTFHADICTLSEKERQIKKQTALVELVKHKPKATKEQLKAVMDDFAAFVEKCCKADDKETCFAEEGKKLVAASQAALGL

With `COc1ccc2[nH]c([S+]([O-])Cc3ncc(C)c(OC)c3C)nc2c1` (centres unmarked) [Omeprazole, omeprazole], the logK at HSA [1] is on record as 4.61.
With `Cc1c(OCC(F)(F)F)ccnc1C[S@@+]([O-])c1nc2ccccc2[nH]1` [R-lansoprazole, dexlansoprazole], on HSA [2], the logK result was “logK = 3.44 Binding to subdomain IIA”.
